Data taken from patent US12668591B2, “1,2,4-oxadiazole derivatives as histone deacetylase 6 inhibitors” (Oryzon Genomics, S.A., priority 2017, dated 2026).

Biological target: T1, HDAC6 (Homo sapiens, UniProt Q9UBN7)
T1 sequence (Q9UBN7 1-1215): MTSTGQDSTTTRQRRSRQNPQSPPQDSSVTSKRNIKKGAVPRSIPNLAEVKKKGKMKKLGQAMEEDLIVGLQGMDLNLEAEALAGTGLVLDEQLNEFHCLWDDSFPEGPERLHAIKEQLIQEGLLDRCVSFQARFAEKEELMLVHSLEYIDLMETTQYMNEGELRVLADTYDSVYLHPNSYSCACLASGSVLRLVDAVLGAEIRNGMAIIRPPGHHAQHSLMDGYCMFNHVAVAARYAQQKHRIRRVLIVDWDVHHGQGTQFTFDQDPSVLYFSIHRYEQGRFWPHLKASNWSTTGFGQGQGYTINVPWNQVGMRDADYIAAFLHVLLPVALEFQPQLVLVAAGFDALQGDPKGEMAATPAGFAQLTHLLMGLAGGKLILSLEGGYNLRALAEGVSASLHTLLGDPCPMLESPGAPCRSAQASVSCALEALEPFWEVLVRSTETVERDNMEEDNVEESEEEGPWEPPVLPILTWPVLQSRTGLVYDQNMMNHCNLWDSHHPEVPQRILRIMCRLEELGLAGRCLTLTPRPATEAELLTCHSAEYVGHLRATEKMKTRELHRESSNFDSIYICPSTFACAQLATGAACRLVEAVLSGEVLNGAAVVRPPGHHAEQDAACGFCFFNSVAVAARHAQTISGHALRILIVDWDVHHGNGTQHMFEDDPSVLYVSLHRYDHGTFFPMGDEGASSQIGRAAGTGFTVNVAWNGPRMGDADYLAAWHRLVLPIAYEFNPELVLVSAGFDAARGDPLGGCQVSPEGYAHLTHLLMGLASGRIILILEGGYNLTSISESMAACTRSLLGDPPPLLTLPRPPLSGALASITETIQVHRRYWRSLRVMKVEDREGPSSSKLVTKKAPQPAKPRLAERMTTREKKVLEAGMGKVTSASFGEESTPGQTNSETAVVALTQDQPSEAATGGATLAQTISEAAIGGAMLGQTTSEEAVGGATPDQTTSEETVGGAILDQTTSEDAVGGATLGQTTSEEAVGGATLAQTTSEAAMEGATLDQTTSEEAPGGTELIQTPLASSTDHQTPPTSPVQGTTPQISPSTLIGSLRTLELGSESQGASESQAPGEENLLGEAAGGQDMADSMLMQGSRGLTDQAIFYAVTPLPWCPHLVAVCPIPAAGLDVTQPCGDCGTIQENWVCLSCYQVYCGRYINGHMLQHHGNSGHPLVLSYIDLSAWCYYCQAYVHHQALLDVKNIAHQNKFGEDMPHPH
Experiment: In vitro cell-based assay: acetylation levels of Alpha-Tubulin by Western Blot in MOLP8 cells
Set-up: endogenous in cells; host or cells: MOLP8
Conditions: 18 h, acetyl-alpha-tubulin relative band intensity, ACY-1215 1 μM = 100%
Description: In Vitro Cell-Based Assay
In order to determine the cellular activity of HDAC6 upon treatment with HDAC6 inhibitors, acetylation levels of Alpha-Tubulin (a HDAC6-specific substrate) were measured by Western Blot. For this, MOLP8 cells were seeded in 6-well plates at a cell density of 500.000 cells/well and treated with the selected compounds at 5 and 1 μM for 18 h at 37° C. and 5% CO2 in a humidified tissue culture incubator. Consecutively, cell pellets were collected and whole protein extracts prepared using RIPA buffer (SIGMA) supplemented with 1× protease inhibitors (cOmplete mini, Roche). Protein concentration was determined with Bradford's reagent (Bio-Rad) as per manufacturer's instructions, and 7 μg of total protein were loaded into pre-cast 10% NuPAGE Novex gels (Life Technologies). Gels were run in […] (Life Technologies) and proteins were transferred using the iBlot 2 Dry Blotting System (Life Technologies). Blots were subsequently rinsed in distilled water and stained with Ponceau S solution (SIGMA). Blots were then washed in distilled water to remove Ponceau excess and scanned with the Epson Perfection V600 Photo professional Scanner. After this, blots were de-stained and blocked in 5% milk/PBS-Tween 0.1% for 1 h at room temperature followed by incubation with anti-Acetyl-alpha Tubulin (SIGMA cat. #T7451, 1:10.000 dilution) and anti-Beta-actin (SIGMA, cat. #A5316, 1:2.000 dilution) primary antibodies in 5% milk/PBS-T 0.1%, overnight at 4° C. on a shaking platform. After incubation, blots were washed 3 times for 5 minutes each in PBS-Tween 0.5% and incubated with anti-mouse HRP-conjugated secondary antibody (Jackson Immuno Research, cat. #115-035-068) at 1:8.000 in 5% milk/PBS-Tween 0.1%, 1 h at room temperature on a shaking platform. After 3 washes of 5 minutes each with PBS-Tween 0.5% and 1 wash in PBS 1×, blots were developed with ECL Plus (GE Healthcare) and the chemiluminescent reaction imaged with the G:Box Chemi XRQ (Syngene) imaging system. WB and Ponceau images were analysed with ImageJ software, WB band intensities normalized by either total protein or Beta-actin content and made relative to ACY-1215 1 μM (equivalent to 100%). ACY-1215 is a HDAC6 inhibitor, and is also known as ricolinostat, with chemical name 2-(diphenylamino)-N-[7-(hydroxyamino)-7-oxoheptyl]-5-pyrimidinecarboxamide. Percentage of band intensities was classified as follows: […]

Structure (SMILES) | Cellular activity @1 uM | Cellular activity @5 uM
CCCCN(C(=O)CCOC)c1ccc(-c2cc(-c3noc(C(F)(F)F)n3)ccn2)nc1 [Example 1i, N-Butyl-3-methoxy-N-(4′-(5-(trifluoromethyl)-1,2,4-oxadiazol-3-yl)-[2,2′-bipyridin]-5-yl)propanamide] | − (<50) | + (50-150)
CN(CCCN1CCC(F)(F)CC1)c1ccc(-c2cc(-c3noc(C(F)(F)F)n3)ccn2)nc1 [Example 1l, N-(3-(4,4-Difluoropiperidin-1-yl)propyl)-N-methyl-4′-(5-(trifluoromethyl)-1,2,4-oxadiazol-3-yl)-[2,2′-bipyridin]-5-amine] | − (<50) | + (50-150)
CCN(CC)CCCN(C)c1ccc(-c2cc(-c3noc(C(F)(F)F)n3)ccn2)nc1 [Example 1n, N^1,N^1-Diethyl-N^3-methyl-N^3-(4′-(5-(trifluoromethyl)-1,2,4-oxadiazol-3-yl)-2,2′-bipyridin-5-yl)propane-1,3-diamine] | − (<50) | + (50-150)
CCN(CCCOc1ccc(-c2cc(-c3noc(C(F)(F)F)n3)ccn2)nc1)CCc1ccccc1 [Example 1p, N-Ethyl-N-phenethyl-3-((4′-(5-(trifluoromethyl)-1,2,4-oxadiazol-3-yl)-[2,2′-bipyridin]-5-yl)oxy)propan-1-amine] | − (<50) | ++ (150-300)
FC1(F)CCN(CCOc2ccnc(-c3cc(-c4noc(C(F)(F)F)n4)ccn3)c2)CC1 [Example 1s, 3-(4′-(2-(4,4-Difluoropiperidin-1-yl)ethoxy)-[2,2′-bipyridin]-4-yl)-5-(trifluoromethyl)-1,2,4-oxadiazole] | − (<50) | + (50-150)
CNCCCOc1ccc(-c2cc(-c3noc(C(F)(F)F)n3)ccn2)nc1 [Example 2, N-Methyl-3-((4′-(5-(trifluoromethyl)-1,2,4-oxadiazol-3-yl)-[2,2′-bipyridin]-5-yl)oxy)propan-1-amine] | − (<50) | + (50-150)
FC(F)(F)c1nc(-c2ccnc(-n3ncc4cccnc43)c2)no1 [Example 6, 3-(2-(1H-Pyrazolo[3,4-b]pyridin-1-yl)pyridin-4-yl)-5-(trifluoromethyl)-1,2,4-oxadiazole] | + (50-150) | + (50-150)
CN(C)CCCOc1ccc(-c2cc(-c3noc(C(F)(F)F)n3)ccn2)nc1 [Example 7, N,N-Dimethyl-3-((4′-(5-(trifluoromethyl)-1,2,4-oxadiazol-3-yl)-[2,2′-bipyridin]-5-yl)oxy)propan-1-amine] | − (<50) | + (50-150)
Cn1nc(-c2cc(-c3noc(C(F)(F)F)n3)ccn2)c2ncccc21 [Example 7a, 3-(2-(1-Methyl-1H-pyrazolo[4,3-b]pyridin-3-yl)pyridin-4-yl)-5-(trifluoromethyl)-1,2,4-oxadiazole] | + (50-150) | ++ (150-300)
